Measured values taken from patent publication US7763656B2, “Use of Acetylamino benzoic acid compounds for nonsense suppression and the treatment of disease” (PTC Therapeutics, Inc., priority 2002, dated 2010).

Key:
[1] = tested on: 28S rRNA; assay: chemical foot-printing of ribosomes prepared from HeLa cells (DMS, kethoxal); assay type: binding; settings: 100 μM, DMS and kethoxal
Description: Ribosomes prepared from HeLa cells were incubated with the small molecules (at a concentration of 100 μM), followed by treatment with chemical modifying agents (dimethyl sulfate [DMS] and kethoxal [KE]). Following chemical modification, rRNA was phenol-chloroform extracted, ethanol precipitated, analyzed in primer extension reactions using end-labeled oligonucleotides hybridizing to different regions of the three rRNAs and resolved on 6% polyacrylamide gels. The probes used for primer extension cover the entire 18S (7 oligonucleotide primers), 28S (24 oligonucleotide primers), and 5S (one primer) rRNAs. Controls in these experiments include DMSO (a control for changes in rRNA accessibility induced by DMSO), paromomycin (a marker for 18S rRNA binding), and anisomycin (a marker for 28S rRNA binding).

[2] = tested on: CFTR in a bronchial epithelial cell line harboring a nonsense codon at amino acid 1282 (W1282X); assay: CFTR function as cAMP-activated chloride channel, SPQ assay; assay type: cell-based; settings: compound, cAMP stimulation
Description: To address the effects of the nonsense-suppressing compounds on mRNAs altered in specific inherited diseases, a bronchial epithelial cell line harboring a nonsense codon at amino acid 1282 (W1282X) was treated with 3-[2-(4-Isopropyl-3-methyl-phenoxy)-acetylamino]-benzoic acid, sodium salt (20RM) and CFTR function was monitored as a cAMP-activated chloride channel using the SPQ assay (Yang et al., 1993, Hum Mol Genet. 2(8):1253-1261 and Howard et al., 1996, Nat Med. 2(4):467-469). […] No increase in fluorescence was observed when cells were not treated with compound or if the cells were not stimulated with cAMP.

[3] = tested on: dystrophin in mouse primary skeletal muscle cultures derived from mdx mice; assay: dystrophin immunostaining in primary skeletal muscle cultures from mdx mice; assay type: cell-based; settings: 20 μM, cells cultured for 10 days
Description: Mouse primary skeletal muscle cultures derived from 1-day old mdx mice were prepared as described previously (Barton-Davis et al., 1999, J Clin Invest. 104(4):375-381). Cells were cultured for 10 days in the presence of 3-[2-(4-Isopropyl-3-methyl-phenoxy)-acetylamino]-benzoic acid, sodium salt (20 μM). Culture medium was replaced every four days and the presence of dystrophin in myoblast cultures was detected by immunostaining as described previously (Barton-Davis et al., 1999, J Clin Invest. 104(4):375-381). A primary monoclonal antibody to the C-terminus of the dystrophin protein (F19A12) was used undiluted and rhodamine conjugated anti-mouse IgG was used as the secondary antibody. The F19A12 antibody will detect the full-length protein produced by suppression of the nonsense codon. Staining was viewed using a Leica DMR micropscope, digital camera, and associated imaging software at the University of Pennsylvania.

Cc1cc(OCC(=O)Nc2cccc(C(=O)[O-])c2)ccc1C(C)C.[Na+] [Compound 46, 3-[2-(4-Isopropyl-3-methyl-phenoxy)-acetylamino]-benzoic acid, Sodium salt]
accessibility of chemical modifying agents to rRNA nucleotides (foot-printing) [1]: alters the accessibility of the chemical modifying agents to specific nucleotides in the 28S rRNA | CFTR function (SPQ fluorescence, chloride channel activity) [2]: increase chloride channel activity | full-length dystrophin expression (immunostaining) [3]: EXPRESS FULL-LENGTH […] | melting point: 188 to 189 °C
